Among the data in US11046699B2, “Pyrazolo-pyrimidin-amino-cycloalkyl compounds and their therapeutic uses” (RAPT THERAPEUTICS, INC., priority 2018, dated 2021) are IC50 values, retold here.

A value given as a limit tells only on which side of the number the result lay.

The assay concerns the target GCN2 (Homo sapiens, UniProt Q9P2K8). Nature of the assay: GCN2 enzymatic endpoint assay: phosphorylation of GFP-eIF2α measured by TR-FRET (Lanthascreen). The assay is classed as biochemical. The conditions noted are these: tested as described in Example 77; compound and/or hydrochloride, dihydrochloride or trifluoroacetic acid salt; read-out: IC 50 Activity. The method, boiled down:
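Phosphorylated eIF2α read by Lanthascreen TR-FRET (acceptor 520 nm over donor 495 nm) after EDTA stop. The reaction ran 90 min at room temperature on 80 nM GFP-eIF2α with 2 μM ATP.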
A general note: TR-FRET usually uses a lanthanide donor and a delayed reading to cut background.

Chain of GCN2 (Q9P2K8 whole entry): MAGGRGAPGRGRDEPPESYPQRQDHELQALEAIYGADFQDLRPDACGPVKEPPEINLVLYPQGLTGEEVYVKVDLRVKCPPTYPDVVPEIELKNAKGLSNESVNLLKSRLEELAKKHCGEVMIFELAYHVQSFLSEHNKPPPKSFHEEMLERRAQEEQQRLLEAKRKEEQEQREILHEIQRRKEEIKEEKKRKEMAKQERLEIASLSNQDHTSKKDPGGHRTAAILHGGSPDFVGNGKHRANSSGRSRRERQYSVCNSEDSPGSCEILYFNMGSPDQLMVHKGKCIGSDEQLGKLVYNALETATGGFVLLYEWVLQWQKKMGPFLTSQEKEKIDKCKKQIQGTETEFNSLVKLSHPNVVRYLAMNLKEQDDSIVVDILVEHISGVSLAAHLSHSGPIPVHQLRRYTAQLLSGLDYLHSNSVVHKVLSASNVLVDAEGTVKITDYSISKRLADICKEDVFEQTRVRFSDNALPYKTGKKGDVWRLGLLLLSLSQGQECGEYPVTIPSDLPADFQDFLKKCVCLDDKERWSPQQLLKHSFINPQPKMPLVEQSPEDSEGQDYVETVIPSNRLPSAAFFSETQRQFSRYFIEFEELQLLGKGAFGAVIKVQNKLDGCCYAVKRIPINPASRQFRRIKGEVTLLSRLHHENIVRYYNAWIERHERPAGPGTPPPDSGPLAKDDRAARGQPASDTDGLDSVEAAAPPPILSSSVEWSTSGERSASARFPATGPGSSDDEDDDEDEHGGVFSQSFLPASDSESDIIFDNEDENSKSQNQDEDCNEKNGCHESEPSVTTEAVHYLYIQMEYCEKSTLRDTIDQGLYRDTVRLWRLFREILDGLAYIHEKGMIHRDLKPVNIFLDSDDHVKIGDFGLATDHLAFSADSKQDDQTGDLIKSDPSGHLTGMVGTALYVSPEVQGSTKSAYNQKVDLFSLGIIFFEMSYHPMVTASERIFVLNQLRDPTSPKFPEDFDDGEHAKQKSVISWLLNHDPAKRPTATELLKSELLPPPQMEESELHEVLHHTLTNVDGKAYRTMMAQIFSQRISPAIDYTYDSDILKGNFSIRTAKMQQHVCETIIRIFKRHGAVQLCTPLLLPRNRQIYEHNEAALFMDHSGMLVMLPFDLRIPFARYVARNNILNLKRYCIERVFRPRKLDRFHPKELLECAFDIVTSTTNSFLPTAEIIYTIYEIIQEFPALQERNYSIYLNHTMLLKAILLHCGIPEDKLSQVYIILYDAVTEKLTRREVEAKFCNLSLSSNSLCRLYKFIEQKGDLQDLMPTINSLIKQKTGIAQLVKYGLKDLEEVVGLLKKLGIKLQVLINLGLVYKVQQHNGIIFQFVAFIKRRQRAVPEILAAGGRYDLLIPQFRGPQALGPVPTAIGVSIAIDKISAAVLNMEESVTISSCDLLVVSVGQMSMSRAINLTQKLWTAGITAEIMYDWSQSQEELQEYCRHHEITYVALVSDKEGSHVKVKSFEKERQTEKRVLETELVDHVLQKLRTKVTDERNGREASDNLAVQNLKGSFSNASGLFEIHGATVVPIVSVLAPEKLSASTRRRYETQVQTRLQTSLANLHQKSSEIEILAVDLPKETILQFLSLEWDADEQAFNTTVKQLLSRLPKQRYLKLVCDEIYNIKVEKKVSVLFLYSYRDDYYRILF

As to `CNC(=O)[C@]1(C)CC[C@@H](Nc2ncc3c(Br)nn(-c4ccc5ncc(CCO)cc5c4)c3n2)C1` [(1R,3R)-3-[[3-bromo-1-[3-(2-hydroxyethyl)-6-quinolyl]pyrazolo[3,4-d]pyrimidin-6-yl]amino]-N,1-dimethyl-cyclopentane-carboxamide], the IC50 is less than 25 nM.

Consider `CNC(=O)[C@]1(C)CC[C@@H](Nc2ncc3c(Br)nn(-c4ccc(-c5nnc(C)s5)c(CC(C)O)c4)c3n2)C1` (stereo partly drawn) [(1R,3R)-3-[[3-bromo-1-[3-(2-hydroxypropyl)-4-(5-methyl-1,3,4-thiadiazol-2-yl)phenyl]pyrazolo[3,4-d]pyrimidin-6-yl]amino]-N,1-dimethyl-cyclopentanecarboxamide], for which the IC50 is 25 to 200 nM. The value for `CNC(=O)[C@]1(C)CC[C@@H](Nc2ncc3c(Br)nn(-c4ccc5ncc(OCCOC)cc5c4)c3n2)C1` [(1R,3R)-3-[[3-bromo-1-[3-(2-methoxy-ethoxy)-6-quinolyl]pyrazolo[3,4-d]pyrimidin-6-yl]amino]-N,1-dimethyl-cyclopentanecarboxamide] was 25 to 200 nM. The value for `CNC(=O)[C@]1(C)CC[C@@H](Nc2ncc3c(Br)nn(-c4ccc(-c5nnc(C)s5)c(CCS(C)(=O)=O)c4)c3n2)C1` [(1R,3R)-3-[[3-bromo-1-[3-(2-methyl-sulfonylethyl)-4-(5-methyl-1,3,4-thiadiazol-2-yl)phenyl]pyrazolo[3,4-d]pyrimidin-6-yl]amino]-N,1-dimethyl-cyclopentanecarboxamide] was 25 to 200 nM; that for `CNC(=O)[C@]1(C)CC[C@@H](Nc2ncc3c(Br)nn(-c4cccc(CCS(C)(=O)=O)c4)c3n2)C1` [(1R,3R)-3-[[3-bromo-1-[3-(2-methyl-sulfonylethyl)phenyl]pyrazolo[3,4-d]pyrimidin-6-yl]amino]-N,1-dimethyl-cyclopentanecarboxamide] was 25 to 200 nM; that for `CNC(=O)[C@]1(C)CC[C@@H](Nc2ncc3c(Br)nn(-c4ccc(-c5ncco5)c(CCN5CCOCC5)c4)c3n2)C1` [(1R,3R)-3-[[3-bromo-1-[3-(2-morpholino-ethyl)-4-oxazol-2-yl-phenyl]pyrazolo [3,4-d]pyrimidin-6-yl]amino]-N,1-dimethyl-cyclopentanecarboxamide] was 25 to 200 nM. The value for `CNC(=O)[C@]1(C)CC[C@@H](Nc2ncc3c(Br)nn(-c4ccc5ncc(NC(=O)CCOC)cc5c4)c3n2)C1` [(1R,3R)-3-[[3-bromo-1-[3-(3-methoxy-propanoylamino)-6-quinolyl]pyrazolo[3,4-d]pyrimidin-6-yl]amino]-N,1-dimethyl-cyclopentanecarboxamide] was 25 to 200 nM; that for `CNC(=O)[C@]1(C)CC[C@@H](Nc2ncc3c(Br)nn(-c4cccc(Oc5ccncc5)c4)c3n2)C1` [(1R,3R)-3-[[3-bromo-1-[3-(4-pyridyloxy)phenyl]pyrazolo[3,4-d]pyrimidin-6-yl]amino]-N,1-dimethyl-cyclopentane-carboxamide] was 25 to 200 nM.

As to `CNC(=O)[C@]1(C)CC[C@@H](Nc2ncc3c(Br)nn(-c4ccc(-c5nnc(C)s5)c(OCC#N)c4)c3n2)C1` [(1R,3R)-3-[[3-bromo-1-[3-(cyanomethoxy)-4-(5-methyl-1,3,4-thiadiazol-2-yl)phenyl]pyrazolo[3,4-d]pyrimidin-6-yl]amino]-N,1-dimethyl-cyclopentanecarboxamide], the IC50 fell in the range of 25 to 200 nM. The value for `CNC(=O)[C@]1(C)CC[C@@H](Nc2ncc3c(Br)nn(-c4cc(F)cc(CC#N)c4)c3n2)C1` [(1R,3R)-3-[[3-bromo-1-[3-(cyanomethyl)-5-fluoro-phenyl]pyrazolo[3,4-d]pyrimidin-6-yl]amino]-N,1-dimethyl-cyclopentane-carboxamide] was 25 to 200 nM; that for `CNC(=O)[C@]1(C)CC[C@@H](Nc2ncc3c(Br)nn(-c4cc(CO)cc(C(F)(F)F)c4)c3n2)C1` [(1R,3R)-3-[[3-bromo-1-[3-(hydroxy-methyl)-5-(trifluoromethyl)phenyl]pyrazolo[3,4-d]pyrimidin-6-yl]amino]-N,1-dimethyl-cyclopentanecarboxamide] was 25 to 200 nM. With `CNC(=O)[C@]1(C)CC[C@@H](Nc2ncc3c(Br)nn(-c4cc(CO)cc([N+](=O)[O-])c4)c3n2)C1` [(1R,3R)-3-[[3-bromo-1-[3-(hydroxy-methyl)-5-nitro-phenyl]pyrazolo [3,4-d]pyrimidin-6-yl]amino]-N,1-dimethyl-cyclopentanecarboxamide] the figure was 25 to 200 nM; with `CNC(=O)[C@]1(C)CC[C@@H](Nc2ncc3c(Br)nn(-c4ccc(-c5ncco5)c(CO)c4)c3n2)C1` [(1R,3R)-3-[[3-bromo-1-[3-(hydroxymethyl)-4-oxazol-2-yl-phenyl]pyrazolo[3,4-d]pyrimidin-6-yl]amino]-N,1-dimethyl-cyclopentanecarboxamide], 25 to 200 nM; with `CNC(=O)[C@]1(C)CC[C@@H](Nc2ncc3c(Br)nn(-c4cc(CO)cc(S(C)(=O)=O)c4)c3n2)C1` [(1R,3R)-3-[[3-bromo-1-[3-(hydroxymethyl)-5-methylsulfonyl-phenyl]pyrazolo[3,4-d]pyrimidin-6-yl]amino]-N,1-dimethyl-cyclo-pentanecarboxamide], 25 to 200 nM. As to `CNC(=O)[C@]1(C)CC[C@@H](Nc2ncc3c(Br)nn(-c4ccc(-c5ncco5)c(CNS(C)(=O)=O)c4)c3n2)C1` [(1R,3R)-3-[[3-bromo-1-[3-(methane-sulfonamidomethyl)-4-oxazol-2-yl-phenyl]pyrazolo[3,4-d]pyrimidin-6-yl]amino]-N,1-dimethyl-cyclopentanecarboxamide], the IC50 lay in the range of 25 to 200 nM. With `CNC(=O)[C@]1(C)CC[C@@H](Nc2ncc3c(Br)nn(-c4ccc(-c5nnc(C)s5)c(OCS(C)(=O)=O)c4)c3n2)C1` [(1R,3R)-3-[[3-bromo-1-[3-(methylsulfonyl-methoxy)-4-(5-methyl-1,3,4-thiadiazol-2-yl)phenyl]pyrazolo[3,4-d]pyrimidin-6-yl]amino]-N,1-dimethyl-cyclopentane-carboxamide] the figure was 25 to 200 nM. `CNC(=O)[C@]1(C)CC[C@@H](Nc2ncc3c(Br)nn(-c4cccc(NC5COC5)c4)c3n2)C1` [(1R,3R)-3-[[3-bromo-1-[3-(oxetan-3-ylamino)phenyl]pyrazolo[3,4-d]pyrimidin-6-yl]amino]-N,1-dimethyl-cyclopentanecarboxamide]: the IC50 fell in the range of 25 to 200 nM. The value for `CNC(=O)[C@]1(C)CC[C@@H](Nc2ncc3c(Br)nn(-c4ccc(-c5ncco5)c(CC(=O)N(C)C)c4)c3n2)C1` [(1R,3R)-3-[[3-bromo-1-[3-[2-(dimethylamino)-2-oxo-ethyl]-4-oxazol-2-yl-phenyl]pyrazolo [3,4-d]pyrimidin-6-yl]amino]-N,1-dimethyl-cyclopentanecarboxamide] was 25 to 200 nM; that for `CNCCc1cc(-n2nc(Br)c3cnc(N[C@@H]4CC[C@@](C)(C(=O)NC)C4)nc32)ccc1-c1ncco1` [(1R,3R)-3-[[3-bromo-1-[3-[2-(methylamino)ethyl]-4-oxazol-2-yl-phenyl]pyrazolo[3,4-d]pyrimidin-6-yl]amino]-N,1-dimethyl-cyclopentanecarboxamide] was 25 to 200 nM; that for `CNC(=O)[C@]1(C)CC[C@@H](Nc2ncc3c(Br)nn(-c4ccc(-c5ncco5)c([C@@H](C)C#N)c4)c3n2)C1` [(1R,3R)-3-[[3-bromo-1-[3-[(1R)-1-cyanoethyl]-4-oxazol-2-yl-phenyl]pyrazolo[3,4-d]pyrimidin-6-yl]amino]-N,1-dimethyl-cyclopentane-carboxamide] was 25 to 200 nM. As to `CNC(=O)[C@]1(C)CC[C@@H](Nc2ncc3c(Br)nn(-c4ccc(-c5ncco5)c([C@H](C)C#N)c4)c3n2)C1` [(1R,3R)-3-[[3-bromo-1-[3-[(1S)-1-cyanoethyl]-4-oxazol-2-yl-phenyl]pyrazolo[3,4-d]pyrimidin-6-yl]amino]-N,1-dimethyl-cyclopentane-carboxamide], the IC50 was 25 to 200 nM.

On to `CNC(=O)[C@]1(C)CC[C@@H](Nc2ncc3c(Br)nn(-c4ccc(-c5ncco5)c(CNCC(F)F)c4)c3n2)C1` [(1R,3R)-3-[[3-bromo-1-[3-[(2,2-difluoroethylamino)methyl]-4-oxazol-2-yl-phenyl]pyrazolo[3,4-d]pyrimidin-6-yl]amino]-N,1-dimethyl-cyclopentane-carboxamide], for which the IC50 lay within 25 to 200 nM.

As to `CNC(=O)[C@]1(C)CC[C@@H](Nc2ncc3c(Br)nn(-c4ccc(-c5ncco5)c(NC(=O)CC#N)c4)c3n2)C1` [(1R,3R)-3-[[3-bromo-1-[3-[(2-cyanoacetyl)amino]-4-oxazol-2-yl-phenyl]pyrazolo [3,4-d]pyrimidin-6-yl]amino]-N,1-dimethyl-cyclopentanecarboxamide], the IC50 lay in the range of 25 to 200 nM. As for `CNC(=O)[C@]1(C)CC[C@@H](Nc2ncc3c(Br)nn(-c4cc(CNCCC#N)cc(OC(F)(F)F)c4)c3n2)C1` [(1R,3R)-3-[[3-bromo-1-[3-[(2-cyanoethyl-amino)methyl]-5-(trifluoromethoxy)phenyl]pyrazolo[3,4-d]pyrimidin-6-yl]amino]-N,1-dimethyl-cyclopentane-carboxamide], the IC50 is 25 to 200 nM. As to `CNC(=O)[C@]1(C)CC[C@@H](Nc2ncc3c(Br)nn(-c4ccc5ncc(CNCCC#N)cc5c4)c3n2)C1` [(1R,3R)-3-[[3-bromo-1-[3-[(2-cyanoethyl-amino)methyl]-6-quinolyl]pyrazolo[3,4-d]pyrimidin-6-yl]amino]-N,1-dimethyl-cyclo-pentanecarboxamide], the IC50 is 25 to 200 nM. For the compound `CNC(=O)[C@]1(C)CC[C@@H](Nc2ncc3c(Br)nn(-c4cc(CNCCOC)cc(OC(F)(F)F)c4)c3n2)C1` [(1R,3R)-3-[[3-bromo-1-[3-[(2-methoxy-ethylamino)methyl]-5-(trifluoromethoxy)phenyl]pyrazolo[3,4-d]pyrimidin-6-yl]amino]-N,1-dimethyl-cyclopentanecarboxamide], the IC50 is 25 to 200 nM. The value for `CNC(=O)[C@]1(C)CC[C@@H](Nc2ncc3c(Br)nn(-c4cc(OCC5(F)CNC5)cc(OC(F)(F)F)c4)c3n2)C1` [(1R,3R)-3-[[3-bromo-1-[3-[(3-fluoroazetidin-3-yl)methoxy]-5-(trifluoromethoxy)phenyl]pyrazolo[3,4-d]pyrimidin-6-yl]amino]-N,1-dimethyl-cyclopentanecarboxamide] was 25 to 200 nM.
